Test results: ChEMBL document CHEMBL3885861, “Open TG-GATES”

Organism: Rattus norvegicus
Assay: Open TG-GATES - Regimen: Daily Repeat
Format: toxicity, organism-based, Sprague-Dawley
Set-up: regimen Daily Repeat, gender Male, age 6 weeks
Settings: in vivo, po, 300 mg/kg, […], route gavage, dose level Middle; for KIDNEY_L / KIDNEY_R / KIDNEY_TOTAL: tissue Kidney; for LIVER: tissue Liver; for A/G / ALP / ALT / AST / BUN / CRE / Ca / Cl / DBIL / GLC / IP / K / LDH / Na / PL / RALB / TBIL / TC / TG / TP / gamma-GTP: tissue Plasma

## CCCCNC(=O)NS(=O)(=O)c1ccc(C)cc1 [TOLBUTAMIDE]
Tissue Blood, time 28 day
  Lym: 81.4%
  MCH: 18.7 pg
  MCHC: 34%
  MCV: 55.2 fL
  Mono: 2.4%
  Neu: 13.8%
  PT: 13.4 s
  Plat: 102.9 x10_4/uL
  RBC: 823.4 x10_4/ul
  Ret: 2.2%
  WBC: 134 x10_2/uL
Time 7 day
  KIDNEY_L: 1.1 g
  KIDNEY_R: 1.1 g
  KIDNEY_TOTAL: 2.2 g
  LIVER: 12.4 g
  A/G: 0.8
  ALP: 1624 IU/L
  ALT: 42 IU/L
  AST: 65.2 IU/L
  BUN: 16.6 mg/dL
  CRE: 0.2 mg/dL
  Ca: 10.8 mg/dL
  Cl: 103.8 meq/L
  DBIL: 0.008 mg/dL
  GLC: 204.8 mg/dL
  IP: 7.5 mg/dL
  K: 4.1 meq/L
  LDH: 57.4 IU/L
  Na: 141 meq/L
  PL: 161 mg/dL
  RALB: 2.5 g/dL
  TBIL: 0.052 mg/dL
  TC: 76.4 mg/dL
  TG: 135.8 mg/dL
  TP: 5.6 g/dL
  gamma-GTP: 1 IU/L
Time 14 day
  KIDNEY_L: 1.3 g
  KIDNEY_R: 1.3 g
  KIDNEY_TOTAL: 2.5 g
  LIVER: 14.8 g
  A/G: 0.8
  ALP: 1281 IU/L
  ALT: 41.4 IU/L
  AST: 69 IU/L
  BUN: 16 mg/dL
  CRE: 0.2 mg/dL
  Ca: 10.9 mg/dL
  Cl: 104.2 meq/L
  DBIL: 0.012 mg/dL
  GLC: 193.4 mg/dL
  IP: 6.9 mg/dL
  K: 4 meq/L
  LDH: 55.4 IU/L
  Na: 142.2 meq/L
  PL: 158.6 mg/dL
  RALB: 2.7 g/dL
  TBIL: 0.06 mg/dL
  TC: 76.4 mg/dL
  TG: 127.2 mg/dL
  TP: 5.8 g/dL
  gamma-GTP: 1 IU/L
Time 28 day
  KIDNEY_L: 1.4 g
  KIDNEY_R: 1.4 g
  KIDNEY_TOTAL: 2.8 g
  LIVER: 15.5 g
  A/G: 0.8
  ALP: 1057.2 IU/L
  ALT: 39.8 IU/L
  AST: 65.6 IU/L
  BUN: 16 mg/dL
  CRE: 0.2 mg/dL
  Ca: 10.7 mg/dL
  Cl: 104.2 meq/L
  DBIL: 0.01 mg/dL
  GLC: 190 mg/dL
  IP: 6.7 mg/dL
  K: 3.9 meq/L
  LDH: 55 IU/L
  Na: 142.8 meq/L
  PL: 157.2 mg/dL
  RALB: 2.8 g/dL
  TBIL: 0.06 mg/dL
  TC: 74.6 mg/dL
  TG: 152.2 mg/dL
  TP: 6.1 g/dL
  gamma-GTP: 1 IU/L
